The values that follow come from ChEMBL document CHEMBL1156813 (J Med Chem, 2010).

In brackets after ≈: the same amount, converted by molar mass.

Series [1] can be described thus: physchem. The note with it: phosphate buffered saline, pH 2.
A further series concerns the target Cannabinoid receptor 2 (Homo sapiens, UniProt P34972). Nature of the series: biochemical.
Series [2] in a line: physchem. The note with it: phosphate buffered saline, pH 7.4.
The next series addresses Cannabinoid receptor 1 (Homo sapiens, UniProt P21554). Kind of series: biochemical. The format is cell-based, CHO.
The target in another series is Acetylcholinesterase (Homo sapiens, UniProt P22303). Kind of series: biochemical.
Acetylcholinesterase, sequence (P22303 whole entry): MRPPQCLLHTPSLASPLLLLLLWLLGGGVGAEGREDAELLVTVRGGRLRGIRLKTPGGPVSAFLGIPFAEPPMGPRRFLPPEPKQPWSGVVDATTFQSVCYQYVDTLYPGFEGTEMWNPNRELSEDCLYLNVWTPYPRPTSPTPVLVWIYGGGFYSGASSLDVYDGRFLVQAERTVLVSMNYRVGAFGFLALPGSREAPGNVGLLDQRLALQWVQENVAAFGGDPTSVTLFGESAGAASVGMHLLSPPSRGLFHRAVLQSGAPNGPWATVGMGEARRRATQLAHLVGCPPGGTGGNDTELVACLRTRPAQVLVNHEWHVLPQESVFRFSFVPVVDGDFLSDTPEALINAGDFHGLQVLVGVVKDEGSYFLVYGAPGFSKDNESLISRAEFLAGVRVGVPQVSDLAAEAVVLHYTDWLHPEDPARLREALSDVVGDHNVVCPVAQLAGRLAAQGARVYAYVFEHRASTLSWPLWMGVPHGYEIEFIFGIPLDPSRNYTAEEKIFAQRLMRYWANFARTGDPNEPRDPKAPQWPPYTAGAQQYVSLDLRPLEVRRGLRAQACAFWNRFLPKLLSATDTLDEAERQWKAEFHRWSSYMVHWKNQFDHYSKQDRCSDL

Cannabinoid receptor 1, sequence (P21554 whole entry): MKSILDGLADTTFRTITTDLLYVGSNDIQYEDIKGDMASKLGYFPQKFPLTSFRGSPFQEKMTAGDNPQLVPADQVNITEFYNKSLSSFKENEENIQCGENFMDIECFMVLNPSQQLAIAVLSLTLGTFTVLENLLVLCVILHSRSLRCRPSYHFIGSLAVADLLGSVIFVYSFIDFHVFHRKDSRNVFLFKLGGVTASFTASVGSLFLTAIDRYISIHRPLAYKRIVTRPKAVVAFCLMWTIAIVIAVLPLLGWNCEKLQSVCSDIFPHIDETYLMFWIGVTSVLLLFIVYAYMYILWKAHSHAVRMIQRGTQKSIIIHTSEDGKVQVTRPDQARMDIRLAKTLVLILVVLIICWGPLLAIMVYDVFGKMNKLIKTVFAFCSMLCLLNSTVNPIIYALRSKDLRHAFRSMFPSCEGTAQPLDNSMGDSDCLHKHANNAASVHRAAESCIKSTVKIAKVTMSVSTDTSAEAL
Cannabinoid receptor 2, sequence (P34972 whole entry): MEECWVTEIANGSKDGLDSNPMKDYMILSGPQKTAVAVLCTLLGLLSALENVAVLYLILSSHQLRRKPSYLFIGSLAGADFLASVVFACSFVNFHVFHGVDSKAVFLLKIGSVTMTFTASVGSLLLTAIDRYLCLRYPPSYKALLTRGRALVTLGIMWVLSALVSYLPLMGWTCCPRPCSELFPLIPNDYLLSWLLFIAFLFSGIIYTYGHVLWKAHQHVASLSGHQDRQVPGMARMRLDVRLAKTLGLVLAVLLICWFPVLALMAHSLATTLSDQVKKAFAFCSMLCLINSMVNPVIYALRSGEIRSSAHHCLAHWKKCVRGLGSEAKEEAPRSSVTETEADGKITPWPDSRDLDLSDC
Description for Acetylcholinesterase: Inhibition of human recombinant AChE expressed in HEK293 cells by photometry

As to `CN1CCC(N/C(=N\S(=O)(=O)c2ccc(Cl)cc2)N2CC(c3ccccc3)C(c3ccc(Cl)cc3)=N2)CC1` (stereo unspecified), the kinetic solubility in “physchem [1]” worked out at 65 µM (≈ 37.1 µg/mL); in “physchem [2]”, 11 µM (≈ 6.28 µg/mL). The Ki at Cannabinoid receptor 2 was more than 1000 nM; at Cannabinoid receptor 1, 19 nM.
For `CN(C)CCCN/C(=N\S(=O)(=O)c1ccc(Cl)cc1)N1CC(c2ccccc2)C(c2ccc(Cl)cc2)=N1.Cl` (stereo unspecified), in that order: more than 100 µM, 38 µM, more than 1000 nM and 3.1 nM.
Consider `CC(C)(O)CN=C(NS(=O)(=O)c1ccc(Cl)cc1)N1CC(c2ccccc2)C(c2ccc(Cl)cc2)=N1` (stereo unspecified), for which the kinetic solubility in the series “physchem [1]” and in “physchem [2]” was 4 µM (≈ 2.18 µg/mL) throughout. The Ki is more than 1000 nM at Cannabinoid receptor 2 and 43 nM at Cannabinoid receptor 1.
`CN(C)CCN1CCN(/C(=N\S(=O)(=O)c2ccc(Cl)cc2)N2CC(c3ccccc3)C(c3ccc(Cl)cc3)=N2)CC1` (stereo unspecified): the solubility (kinetic) worked out at 65 µM (≈ 39.9 µg/mL) in the series “physchem [1]” and 4 µM (≈ 2.45 µg/mL) in the series “physchem [2]”. For the same compound, the Ki is more than 1000 nM on Cannabinoid receptor 2 and 9.6 nM on Cannabinoid receptor 1.
As for `O=S(=O)(/N=C(\NCCCCNc1c2c(nc3ccccc13)CCCC2)N1CC(c2ccccc2)C(c2ccc(Cl)cc2)=N1)c1ccc(Cl)cc1` (stereo unspecified), the Ki on Cannabinoid receptor 2 is more than 1000 nM; on Cannabinoid receptor 1 it was 42 nM.
On to `O=S(=O)(N=C(NCCCCN1CCCC1)N1CC(c2ccccc2)C(c2ccc(Cl)cc2)=N1)c1ccc(Cl)cc1` (stereo unspecified), for which the kinetic solubility worked out at 38 µM (≈ 22.7 µg/mL) in “physchem [1]” and 11 µM (≈ 6.58 µg/mL) in “physchem [2]”. The Ki at Cannabinoid receptor 2 is more than 1000 nM; at Cannabinoid receptor 1 it was 27 nM.
On Acetylcholinesterase, `CCc1c(C(=O)NN2CCCCC2)nc(-c2ccccc2Cl)n1-c1ccc(Cl)cc1` gave an IC50 of more than 31.6 µM. The Ki at Cannabinoid receptor 2 is more than 1000 nM; on Cannabinoid receptor 1, 14 nM.
`O=S1(=O)CCN(/C(=N\S(=O)(=O)c2ccc(Cl)cc2)N2CC(c3ccccc3)C(c3ccc(Cl)cc3)=N2)CC1` (stereo unspecified): the values for the solubility (kinetic) in “physchem [1]” and in the series “physchem [2]” were less than 7 µM and less than 3 µM, respectively. In addition, the Ki at Cannabinoid receptor 2 was determined as 571 nM; on Cannabinoid receptor 1, 31 nM.
`CNC(=NS(=O)(=O)c1ccc(Cl)cc1)N1CC(c2ccccc2)C(c2ccc(Cl)cc2)=N1` (stereo not drawn) [RAC-IBIPINABANT]: the figures for the solubility (kinetic) in the series “physchem [1]” and in the series “physchem [2]” were 4 µM (≈ 1.95 µg/mL) and 2 µM (≈ 0.975 µg/mL), respectively.

In general, kinetic solubility refers to solubility judged after dilution from a stock solution rather than from solid. The Ki is the dissociation constant of the complex between target and ligand, obtained from inhibition or displacement. Read a low Ki as a stronger hold on the target. The term IC50 denotes the concentration needed to halve the response being measured.
